Experiments:
Type in all cases: physicochemical
[1] = Dissolution kinetics by online refractometry (normalized refractive index), stirred; conditions: particle size 60-90 μm; for amount of solid dissolved in water within 20 seconds: 60 ml, stirring 500 rpm, ambient temperature (20° C.)
Procedure: Dissolution kinetics were measured by online-refractometry in water over a time period of 0 to 100 seconds while stirring at 500 rpm at ambient temperature (20° C.).
The dissolution kinetics of 2 g of lactose.CaCl2.7 H2O co-crystals in water (♦) in comparison to 1.24 g of pure lactose monohydrate in water (▪), 1.24 g of lactose monohydrate in 0.52 g calcium chloride solution (▴) and a physical mixture of 1.24 g of lactose monohydrate and 0.52 g of calcium chloride dihydrate in water (X) were measured by refractometry at room temperature over a time period of 0 to 100 seconds while stirring the solution.

[2] = Dissolution of an individual crystal filmed under a microscope, no agitation; conditions: room temperature; for time to complete dissolution of an individual crystal: crystals comparable in size and morphology
Procedure: The dissolution of the individual crystals was filmed under a microscope using a high-resolution camera and film-stills of the progressing dissolution were analyzed (area of remaining solid material) until complete dissolution was achieved.
Dissolution kinetics were measured over a time period of 0 to 36 seconds.
The dissolution kinetics of an individual α-lactose.CaCl2.7 H2O co-crystal (▪) in comparison to α-lactose monohydrate (▴) in water were determined. Dissolution kinetics were measured over a time period of 0 to 36 seconds at room temperature without stirring.

[3] = Dynamic vapor sorption (moisture tolerance); conditions: 25° C., 120 hours, relative humidity augmented stepwise
Procedure: The physical mixture contains the same molar quantities of lactose and calcium chloride as compared to the co-crystalline material. The straight (horizontal) line corresponds to an uptake of five equivalents of water. dm: mass gain in percent; RH: relative humidity in percent.
Dynamic vapor sorption experiments were performed for lactose.calcium salt co-crystals in comparison to a physical mixture of lactose monohydrate and calcium chloride dihydrate. The physical mixture contains the same molar quantities of lactose and calcium chloride as compared to the co-crystalline material.
Measurements were conducted over 120 hours at a temperature of 25° C. and relative humidity was augmented stepwise until the samples fully liquefied.

| Compound | amount of solid dissolved in calcium chloride solution within 20 seconds ([1]; 1.24 g in 0.52 g calcium chloride solution, stirring, room temperature) | amount of solid dissolved in water within 20 seconds [1] | time for complete dissolution relative to lactose.CaCl2.7 H2O co-crystal (times as long) ([2]; individual crystal, liquid phase not agitated) | time to complete dissolution of an individual crystal ([2]; water, without stirring) | dissolution speed relative to lactose monohydrate (times faster) ([2]; individual crystal, water, without stirring) | moisture absorption behaviour [3] | moisture tolerance compared to physical mixture of lactose monohydrate and calcium chloride dihydrate [3] |
| --- | --- | --- | --- | --- | --- | --- | --- |
| O.OC[C@H]1O[C@@H](O[C@H]2[C@H](O)[C@@H](O)C(O)O[C@@H]2CO)[C@H](O)[C@@H](O)[C@H]1O (stereo partly drawn) [lactose monohydrate, reference compound] | about 30% | about 20% | roughly seven | about 36 seconds |  |  |  |
| O.O.O.O.O.O.O.OC[C@H]1O[C@@H](O[C@H]2[C@H](O)[C@@H](O)C(O)O[C@@H]2CO)[C@H](O)[C@@H](O)[C@H]1O.[Ca+2].[Cl-].[Cl-] (stereo partly drawn) [lactose.CaCl2.7 H2O co-crystals, lactose.calcium chloride.7 H2O] |  | about 85% |  | about 2.5 seconds | 14 to 15 times | gradually continued to absorb moisture in parallel with augmentation of relative humidity | improved moisture tolerance |
